Source: patent US20110230558A1 (priority 2008, published 2011)

Legend:
[1] = tested on: Enterobacter aerogenes CECT 689; conditions: Gram − bacteria; cited from earlier work
[2] = tested on: Arthrobacter oxydans ATCC 8010; conditions: Gram + bacteria; cited from earlier work
[3] = tested on: Proteus mirabilis CECT 170; conditions: Gram − bacteria; cited from earlier work
[4] = tested on: Chaetonium globosum ATCC 6205; conditions: Fungi; cited from earlier work
[5] = tested on: Salmonella typhimurium ATCC 16028; conditions: Gram − bacteria; cited from earlier work
[6] = tested on: Serratia marcenses CECT 274; conditions: Gram − bacteria; cited from earlier work
[7] = tested on: Staphylococcus aureus ATCC 6538; conditions: Gram + bacteria; cited from earlier work
[8] = tested on: Candida albicans ATCC 10231; conditions: Yeast; cited from earlier work
S. typhimurium LPS = test: Endotoxin deactivation as a function of LAE concentration, LAL assay; format: biochemical, Salmonella typhimurium; conditions: for CONCENTRATION Endotoxin: S. typhimurium LPS 10 μg/ml, 2 hours at 37° C., control without LAE 17000
Procedure: The 1 mg/ml stock solution of S. typhimurium LPS was prepared using the commercially available LPS obtained from the List Biological Laboratories, Inc. (cat #225). The 20 μg/ml solution of LPS was prepared by serially diluting the stock. All the LPS solutions were kept at refrigeration temperatures according to the instructions provided by the manufacturer.
The solutions of LAE prepared were used in the experiment. For the procedure, 500 μl of 20 μg/ml of endotoxins were mixed with 500 μl of LAE solution (10, 20, 40, 60 and 100 μg/ml) in glass reaction tubes, giving the final concentration of LPS, 10 μg/ml and the concentration range of LAE, 5-50 μg/ml. As a negative control, LPS was mixed with 1 mg/ml aqueous solution of propylene glycol. The mixture was incubated for 2 hours at 37° C. Each sample was serially diluted using the LAL reagent water to be assayed for the endotoxin activity.

[9] = tested on: Bacillus subtilis ATCC 6633; conditions: Gram + bacteria; cited from earlier work
[10] = tested on: Gliocadium virens ATCC 4645; conditions: Fungi; cited from earlier work
[11] = tested on: Leuconostoc mesenteroides CETC 912; conditions: Gram + bacteria; cited from earlier work
[12] = tested on: endotoxins produced by E. coli O113:H10; test: Endotoxin deactivation by LAE, LAL assay (turbidimetric, pyrochrome); format: biochemical; conditions: E. coli O113:H10 endotoxin 12.5 μg/ml, incubated two hours at 37° C., control without LAE 120
Procedure: Turbidimetric LAL test was conducted according to the instructions provided by the manufacturer (Pyrotell-T, The associates of Cape Cod, Inc.). The standard curve was built based on 300, 30, 3, 0.3, 0.03 and 0.003 EU/ml. The same endotoxin in concentrations of 12.5 μg/ml was used in the experiment.
LAE was applied in concentrations of 0, 5, 10, 20, 30, 50 μg/ml to assess this compound's ability to deactivate endotoxins. LAL reagent water (LRW) was used to make all the endotoxin dilutions including the standards. MIRENAT-CF is a 10.5% solution of LAE in Propylene glycol, so the dilutions of MIRENAT-CF were initially made in propylene glycol, so that concentration of LAE was kept as the only variable. For the presumptive deactivation procedure, the endotoxin was incubated together with LAE for two hours at 37° C. The turbidimetric assay was conducted two times using the onset time for OD405=0.05. The pyrochrome assay was conducted once using the same template on plates.

[13] = tested on: Aspergillus niger ATCC 14604; conditions: Fungi; cited from earlier work
[14] = tested on: Aureobasidium pullulans ATCC 9348; conditions: Fungi; cited from earlier work
[15] = tested on: Listeria monocytogenes ATCC 7644; conditions: Gram + bacteria; cited from earlier work
[16] = tested on: Lactobacillus delbrueckii ssp lactis CECT 372; conditions: Gram + bacteria; cited from earlier work
[17] = rats; cited from earlier work
[18] = tested on: Bordetella bronchiseptica ATCC 4617; conditions: Gram − bacteria; cited from earlier work
[19] = tested on: Penicillium funiculosum CECT 2914; conditions: Fungi; cited from earlier work
[20] = tested on: Penicillium chrysogenum CECT 2802; conditions: Fungi; cited from earlier work
[21] = tested on: Clostridium perfringens ATCC 77454; conditions: Gram + bacteria; cited from earlier work
[22] = tested on: Human epithelial cell lines (KB); test: LPS-induced release of peptidases from human cell culture, fluorigenic substrate; format: cell-based; conditions: for Peptidase released: LAE 2 μg/ml; for Peptidase released / reduction of the toxicity of LPS (measured by fluorescence release): KB cells
Procedure: Human epithelial cell lines (KB) were obtained from American Cell type collection and grown in BGJ medium (Gibco, Buffalo, N.Y.) at 37° C. with 5% CO2. The medium was supplemented with 5% heated calf serum. Cells were placed in 24 well dishes with 0.5 ml medium per well. The release of peptidases from the human cell lines in response to LPS was measured by a coumarin based fluorigenic substrate utilized to study eukaryotic enzymes that degrade extracellular matrix proteins (collagen and fibronectin) and inactivated by inhibitors of matrix of metalloprotease (Yang et al. Abstract 105 at the 105th ASM general meeting).
The release of peptidase was measured by sensitive fluorescence test.

[23] = tested on: Bacillus cereus var mycoide ATCC 11778; conditions: Gram + bacteria; cited from earlier work
[24] = tested on: Micrococcus luteus ATCC 9631; conditions: Gram + bacteria; cited from earlier work
[25] = tested on: Rhodotorula rubra CECT 1158; conditions: Yeast; cited from earlier work
[26] = tested on: Escherichia coli ATCC 8739; conditions: Gram − bacteria; cited from earlier work
[27] = tested on: Saccharomyces cerevisiae ATCC 9763; conditions: Yeast; cited from earlier work
[28] = animals and humans; cited from earlier work
[29] = tested on: Citrobacter freundii ATCC 22636; conditions: Gram − bacteria; cited from earlier work
[30] = tested on: Klebsiella pneumoniae var pneumoniae CECT 178; conditions: Gram − bacteria; cited from earlier work
[31] = tested on: Pseudomonas aeruginosa ATCC 9027; conditions: Gram − bacteria; cited from earlier work
[32] = tested on: Alcaligenes faecalis ATCC 8750; conditions: Gram − bacteria; cited from earlier work

For “ethyl ester of the lauramide of the arginine monohydrochloride [LAE]”, the M.I.C. [1] is given as 32 ppm, the M.I.C. [2] is given as 64 ppm and the M.I.C. [3] is given as 64 ppm. For the same substance, the M.I.C. [4] was 16 ppm, the M.I.C. [5] was 32 ppm and the M.I.C. [6] was 2 ppm. For the same substance, the M.I.C. [7] was 32 ppm, the M.I.C. [8] was 16 ppm and the “CONCENTRATION Endotoxin” value (S. typhimurium LPS; LAE 5 μg/ml (as MIRENAT-CF)) was 4000 EU/ml × 10E3. For the same substance, the “CONCENTRATION Endotoxin” value (S. typhimurium LPS; LAE 10 μg/ml (as MIRENAT-CF)) was 3995 EU/ml × 10E3, the “CONCENTRATION Endotoxin” value (S. typhimurium LPS; LAE 20 μg/ml (as MIRENAT-CF)) was 3000 EU/ml × 10E3 and the “CONCENTRATION Endotoxin” value (S. typhimurium LPS; LAE 30 μg/ml (as MIRENAT-CF)) was 4000 EU/ml × 10E3. The “CONCENTRATION Endotoxin” value (S. typhimurium LPS; LAE 50 μg/ml (as MIRENAT-CF)) was 2500 EU/ml × 10E3, the “dose response of the deactivation effect” value (S. typhimurium LPS; LAE concentration range 5-50 μg/ml) was “does not follow a dose response” and the “effect on the activity of S. typhimurium endotoxins” value (S. typhimurium LPS; LAE in concentrations of 5-50 μg/ml) was “significantly decreased”. The M.I.C. [9] was 16 ppm, the M.I.C. [10] was 32 ppm and the M.I.C. [11] was 32 ppm. The “CONCENTRATION Endotoxin” value ([12]; LAE 10 μg/ml) was 80 EU/ml × 10E3, the “CONCENTRATION Endotoxin” value ([12]; LAE 50 μg/ml) was 61 EU/ml × 10E3 and the M.I.C. [13] was 32 ppm. The M.I.C. [14] was 16 ppm, the M.I.C. [15] was 10 ppm and the M.I.C. [16] was 16 ppm. The absorption and metabolism [17] was “fast absorption and metabolisation into naturally-occurring amino acids and the fatty acid lauric acid”, the M.I.C. [18] was 128 ppm and the M.I.C. [19] was 16 ppm. The M.I.C. [20] was 128 ppm, the M.I.C. [21] was 16 ppm and the “release of peptidase by LAE per se” value ([22]; 2 μg LAE/ml without LPS, similar to the blank) was “less than 300 units”. The “peptidase response to LPS” value ([22]; LAE 2 μg/ml added to LPS, both doses of LPS tested (10 and 20 μg/ml)) was “significant reduction of peptidase response”, the Peptidase released ([22]; LPS 0 μg/ml, blank sample 400) was 296 Fluorescence units and the Peptidase released ([22]; LPS 10 μg/ml, LPS alone 900) was 580 Fluorescence units. The Peptidase released ([22]; LPS 20 μg/ml, LPS alone 1200) was 655 Fluorescence units, the “reduction of the toxicity of LPS (measured by fluorescence release)” value ([22]; LPS 10 μg/ml pre-mixed with 2 μg/ml of LAE) was 35.6% and the “reduction of the toxicity of LPS (measured by fluorescence release)” value ([22]; LPS 20 μg/ml pre-mixed with 2 μg/ml of LAE) was 45.4%. For the same substance, the M.I.C. [23] was 32 ppm, the M.I.C. [24] was 128 ppm and the M.I.C. [25] was 16 ppm. For the same substance, the M.I.C. [26] was 32 ppm, the M.I.C. [27] was 32 ppm and the toxicity [28] was “completely harmless to animals and humans”. The M.I.C. [29] was 64 ppm, the M.I.C. [30] was 32 ppm and the M.I.C. [31] was 32 ppm. For the same substance, the M.I.C. [32] was 64 ppm.
